# Measured values published in patent publication US20240091227A1, “Use Of 2-Phenyl-6-(1H-Imidazol-1-YL) Quinazoline For Treating Neurodegenerative Diseases, Preferably Alzheimer's Disease” (ROTTAPHARM BIOTECH S.R.L., priority 2019, published 2024).
# System: PKCε
# Assay: PKCε translocation to the plasma membrane in cultured dorsal root ganglia neurons
# Assay type: cell-based, rat
# Conditions: idazoxan pre-applied 10 minutes at 10 and 100 μM, toward 1 μM CR4056
# Procedure: FIG. 1 reports the time-course (A) and washout (B) of CR4056 effect on PKCF translocation induced by bradykinin (BK 1 μM). In Panel A, open symbols represent the percentage of neurons positive for PKCF translocation following BK stimulation in absence of the drug. Filled symbols represent neurons pre-incubated with CR4056 ([…]) for different times before the stimulation for 30 seconds with BK+CR4056. The first filled symbol indicates the effect of CR4056 co-incubated for 30 seconds with BK, the second filled symbol indicates 10 seconds of pre-incubation of CR4056, and the last indicates 24 hours of pre-incubation of CR4056. […] In Panel B, BK-induced PKCF translocation was evaluated before (open symbol) and after pre-incubation of CR4056 ([…]) at different time intervals (from 10 minutes to 8 hours) (filled symbols). The first datapoint was obtained at the end of the 10 minute pre-incubation, when CR4056 was still present. The subsequent datapoints were obtained after extensive rinsing to ensure complete removal of the drug from extracellular solution (n=3).
# Rat dorsal root ganglia (DRGs) were obtained from freshly isolated spines after carefully removing nerve trunks and connective tissue. Larger ganglia, chopped into 2-4 smaller pieces were then incubated for 1 hour at 37° C. in 0.125% collagenase (Worthington, Freehold, NJ) dissolved in Dulbecco's modified Eagle's medium (DMEM) containing 10% fetal bovine serum (FBS) plus 1% penicillin/streptomycin and 1% L-glutamine (Euroclone, Milan, Italy). After enzymatic digestion, ganglia were mechanically dissociated and neurons plated at a density such that neurons would cover about 30% of coverslip surface in a single layer, in petri dishes containing wells with a glass bottom coverslip (pre-coated with 10 μg/mL poly-L-lysine and 20 µg/ml laminin, Sigma-Aldrich, Milan, Italy). Cells were incubated for 2-3 days in DMEM as described above, plus 1.5 μg/ml cytosine 1-d-arabinofuranoside (ARA-C, Sigma-Aldrich) to slow down proliferation of non neuronal cells, and 100 ng/ml nerve growth factor (NGF, Sigma-Aldrich) to increase cell health and the and the expression of receptors which are linked to PKCF translocation upon stimulation. Activation of membrane receptors coupled to phospholipase C pathway leads to PKCF translocation from cytoplasm to the plasma membrane. In order to study PKCε behaviour a well established technique was employed (Vellani V, Neuroscience, 2006). […] CR4056 was pre-applied in the culture medium for 10 min or co-applied with the stimulus. After fixation, cells were permeabilized with 0.2% Triton X-100 (Sigma-Aldrich, Milan, Italy) and exposed overnight to a rabbit polyclonal antibody highly specific for PKCF. After extensive rinsing, PKCF was visualized with a secondary antibody (1:200 dilution Alexa Fluor 488 goat anti-rabbit, Thermo Fisher Scientific, Monza, Italy) applied for 2-4 hours at room temperature in the dark Cells showing PKCF translocation were detected with a confocal microscope (Leica SP2, Leica, Switzerland) by measuring fluorescence intensity along a line drawn through the cytoplasm and the membrane, thus avoiding the nucleus. Neurons in which fluorescence intensity at the plasma membrane throughout the cell was 1.5-fold or higher than the mean cytoplasmic intensity were considered positive.
compound,measurement,value
"c1ccc2c(c1)OCC(C1=NCCN1)O2 (stereo not shown) [Idazoxan, idazoxan, reference compound]",Effect of idazoxan on the block of PKCF translocation by CR4056,completely ineffective
